Source: the NIST ThermoML archive (doi:10.1016/j.jct.2007.04.005)

Experiment: xn = mol fraction of the nth substance listed
Conditions: 298.15 K, Liquid

CCCCCCCCC [nonane] + C1CCCCC1
Conditions	mass density [kg/m3]
100 kPa, x2 = 0	713.6
100 kPa, x2 = 0.09303	716.6
100 kPa, x2 = 0.2009	720.5
100 kPa, x2 = 0.3051	724.8
100 kPa, x2 = 0.417	729.9
100 kPa, x2 = 0.512	734.6
100 kPa, x2 = 0.5996	739.8
100 kPa, x2 = 0.7052	746.6
100 kPa, x2 = 0.7993	753.9
100 kPa, x2 = 0.9039	763.1
101 kPa, x2 = 0	713.86
101 kPa, x2 = 0.1022	717.19
101 kPa, x2 = 0.1548	719.05
101 kPa, x2 = 0.2009	720.75
101 kPa, x2 = 0.2591	723.01
101 kPa, x2 = 0.3306	726.01
101 kPa, x2 = 0.4003	729.17
101 kPa, x2 = 0.4596	732.07
101 kPa, x2 = 0.5321	735.92
101 kPa, x2 = 0.612	740.61
101 kPa, x2 = 0.6649	744.01
101 kPa, x2 = 0.7224	748.02
101 kPa, x2 = 0.8047	754.4
101 kPa, x2 = 0.8686	759.98
101 kPa, x2 = 0.9405	767.1
2130 kPa, x2 = 0	715.2
2130 kPa, x2 = 0.09303	718.2
2130 kPa, x2 = 0.2009	722.2
2130 kPa, x2 = 0.3051	726.5
2130 kPa, x2 = 0.417	731.5
2130 kPa, x2 = 0.512	736.2
2130 kPa, x2 = 0.5996	741.4
2130 kPa, x2 = 0.7052	748.2
2130 kPa, x2 = 0.7993	755.6
2130 kPa, x2 = 0.9039	764.8
4150 kPa, x2 = 0	716.8
4150 kPa, x2 = 0.09303	719.8
4150 kPa, x2 = 0.2009	723.8
4150 kPa, x2 = 0.3051	728.1
4150 kPa, x2 = 0.417	733.1
4150 kPa, x2 = 0.512	737.8
4150 kPa, x2 = 0.5996	743.1
4150 kPa, x2 = 0.7052	749.9
4150 kPa, x2 = 0.7993	757.2
4150 kPa, x2 = 0.9039	766.5
6180 kPa, x2 = 0	718.4
6180 kPa, x2 = 0.09303	721.4
6180 kPa, x2 = 0.2009	725.4
6180 kPa, x2 = 0.3051	729.7
6180 kPa, x2 = 0.417	734.7
6180 kPa, x2 = 0.512	739.5
6180 kPa, x2 = 0.5996	744.7
6180 kPa, x2 = 0.7052	751.5
6180 kPa, x2 = 0.7993	758.8
6180 kPa, x2 = 0.9039	768.1
8210 kPa, x2 = 0	719.9
8210 kPa, x2 = 0.09303	722.9
8210 kPa, x2 = 0.2009	726.9
8210 kPa, x2 = 0.3051	731.2
8210 kPa, x2 = 0.417	736.3
8210 kPa, x2 = 0.512	741
